# Measured values published in PMC2699512 (Nucleic Acids Research, 2009).
# What was measured:
# [1] = target: T1, yeast RNA triphosphatase (Cet1; S. cerevisiae RTPase) (Saccharomyces cerevisiae, UniProt O13297); test: GTPase inhibition kinetics, TLC; type: biochemical
# T1 sequence (O13297 2-549): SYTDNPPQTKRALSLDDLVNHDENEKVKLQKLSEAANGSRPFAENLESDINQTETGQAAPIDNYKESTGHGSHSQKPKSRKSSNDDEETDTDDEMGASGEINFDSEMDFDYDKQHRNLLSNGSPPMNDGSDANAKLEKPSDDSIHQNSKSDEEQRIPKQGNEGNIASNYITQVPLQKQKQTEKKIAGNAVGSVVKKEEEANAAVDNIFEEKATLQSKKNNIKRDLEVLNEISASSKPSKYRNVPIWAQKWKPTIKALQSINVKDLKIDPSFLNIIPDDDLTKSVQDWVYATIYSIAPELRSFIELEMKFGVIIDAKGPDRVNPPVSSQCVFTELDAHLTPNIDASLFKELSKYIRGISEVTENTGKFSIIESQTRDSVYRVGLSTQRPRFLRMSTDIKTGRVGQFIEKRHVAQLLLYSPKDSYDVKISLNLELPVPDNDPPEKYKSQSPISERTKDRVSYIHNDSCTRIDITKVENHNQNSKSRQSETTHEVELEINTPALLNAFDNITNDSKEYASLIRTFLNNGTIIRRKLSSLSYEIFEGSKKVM
# [2] = target: T1, yeast RNA triphosphatase (Cet1; S. cerevisiae RTPase); test: inhibition of [γ-32P]GTP hydrolysis, TLC of released phosphate; type: biochemical
Structure (SMILES),Ki [1] [µM],IC50 [2] [µM]
COc1nc(N)nc2c1ncn2[C@@H]1O[C@H](COP(=O)(O)OP(=O)(O)OP(=O)(O)O)[C@@H](O)[C@H]1O [A-5],27,150
O=c1[nH]c(=O)c2ncn([C@@H]3O[C@H](COP(=O)(O)OP(=O)(O)OP(=O)(O)O)[C@@H](O)[C@H]3O)c2[nH]1 [A-8],1.8,10
Nc1nc2c(ncn2[C@H]2CC[C@@H](COP(=O)(O)OP(=O)(O)OP(=O)(O)O)O2)c(=O)[nH]1 [A-12],1.1,6.1
O=P(O)(O)OP(=O)(O)OP(=O)(O)O [Tripoly-PO4],–,0.4
Nc1nc2c(ncn2[C@H]2C[C@H](O)[C@@H](COP(=O)(O)OP(=O)(O)OP(=O)(O)O)O2)c(=O)[nH]1 [dGTP],14,76

# Next, values leading:
Ki [1] [µM],IC50 [2] [µM],Structure (SMILES)
1.5,8.1,Cn1c(N)nc2c(ncn2[C@@H]2O[C@H](COP(=O)(O)OP(=O)(O)OP(=O)(O)O)[C@@H](O)[C@H]2O)c1=O [A-4]
9.6,53,Nc1nc(Cl)c2ncn([C@@H]3O[C@H](COP(=O)(O)OP(=O)(O)OP(=O)(O)O)[C@@H](O)[C@H]3O)c2n1 [A-6]
2.9,16,Nc1nc2c(ncn2[C@@H]2O[C@H](COP(=O)(O)OP(=O)(O)OP(=O)(O)O)[C@@H](O)[C@H]2O)c(=S)[nH]1 [A-9]
0.4,2,O=P(O)(O)OP(=O)(O)OP(=O)(O)OC[C@H]1O[C@@H](n2cnc3c(Cl)ncnc32)[C@H](O)[C@@H]1O [A-11]
–,8.1,O=P(O)(O)OP(=O)(O)OP(=O)(O)OC[C@H]1O[C@@H](n2cnc3c(S)ncnc32)[C@H](O)[C@@H]1O [A-18]
16,87,Nc1nc2c(ncn2[C@@H]2O[C@H](COP(=O)(O)OP(=O)(O)OP(=O)(O)O)[C@@H](O)[C@H]2O)c(=O)[nH]1 [GTP]
